According to patent US20010039297A1, “COMPOSITIONS AND METHOD FOR IMPROVING INSULIN SENSIVITY AND GLUCOSE METABOLISM IN INDIVIDUALS WITH IMPAIRED FASTING GLUCOSE OR IMPAIRED GLUCOSE TOLERANCE” (Insmed Pharmaceuticals, Inc., priority 1998, published 2001):

Assays:
Type in all cases: in vivo, human
[1] = tested on: obese men and women with normal glucose tolerance; assay: oral glucose tolerance test before and after treatment, clinical study, subjects with normal glucose tolerance; conditions: eleven volunteers with normal glucose response; 1200 mg/day for 7 to 14 days
Description: (§1) Impaired glucose tolerance, as defined by the World Health Organization, is determined by the administration of a standard oral glucose tolerance test (OGTT) (World Health Org., Diabetes Mellitus, Tech. Rep. Ser., no. 727 (1985)). During an OGTT, a measured amount of glucose (75 grams) is given to a fasted individual and blood glucose levels are measured every 30 minutes, usually for 2 or 3 hours. In a individual with normal glucose tolerance, the blood glucose values will rise during the first part of the test and then rapidly return to basal levels. In an IGT individual the post prandial glucose levels will rise above the normal range, producing a 2-hour glucose value of 140-199 mg/dL, and return to basal levels at a slow rate.
(§2) A clinical study utilizing D-chiro-inositol was performed in obese men and women with normal and abnormal glucose tolerance. Eighteen volunteers received D-chiro-inositol (1200 mg/day) for 7 to 14 days. An oral glucose tolerance test was performed at the beginning of the study, prior to treatment, and at the end of the study, after D-chiro-inositol treatment.

[2] = tested on: obese men and women with abnormal glucose tolerance; assay: oral glucose tolerance test before and after treatment, clinical study, subjects with abnormal glucose tolerance; conditions: 1200 mg/day for 7 to 14 days
Description: as §1, §2

[3] = tested on: obese men; assay: tolbutamide-modified frequently sampled intravenous glucose tolerance test (FSIGTT), insulin sensitivity index by minimal model, clinical study; conditions: single oral dose 300-1200 mg, fasted, 2 hours before FSIGTT
Description: The third method of determining insulin sensitivity involves frequently collecting blood samples for glucose and insulin during an intravenous glucose tolerance test, and analyzing the glucose and insulin dynamics using a minimal mathematical model developed by Bergman (Bergman et. al., J. Clin. Invest. 68:1456-1467 (1981)). This test can be modified by the injection of tolbutamide or exogenous insulin to boost the insulin response and improve the correlation with the euglycemic clamp. The FSIGTT provides an accessible way to determine the insulin sensitivity index (S1). The more insulin insensitive a subject is, the lower the calculated S1. As insulin sensitivity is improved, the S1 value is increased—thus a higher S1 value corresponds to greater insulin sensitivity.
A clinical study of D-chiro-inositol was performed in obese men. This was a three phase, double blind, single oral dose crossover study with subjects receiving either D-chiro-inositol (300-1200 mg) or placebo in a randomized crossover fashion. Treatments were administered to subjects in a fasted state 2 hours before the tolbutamide-modified frequently sampled intravenous glucose tolerance test (FSIGTT) began.
The insulin sensitivity index (S1) was derived using the minimal model analysis of plasma glucose and insulin concentrations sampled during a full tolbutamide-modified FSIGTT.

OC1C(O)C(O)C(O)C(O)C1O [D-chiro-inositol]
glucose values during OGTT [1]: not modified
90 and 120 minute glucose values in OGTT ([2]; abnormal glucose tolerant subjects, p<0.05): statistically significant reduction
glucose response to the glucose load (OGTT) ([2]; seven subjects with abnormal, elevated glucose response): significantly improved
mean increase in insulin sensitivity [3]: 61%
subjects demonstrating an increase in insulin sensitivity (S1) ([3]; out of 9 subjects): 6 out of 9
